Laboratory results published in US20220347175A1, “PYRIDAZINONE DERIVATIVE” (Sumitomo Dainippon Pharma Co., Ltd., priority 2018, published 2022).
Where two headings read alike, the source gives them in different places.

Biological target: T1, human Nav1.1 (Homo sapiens, UniProt P35498)
T1 construct: host or cells: HEK293
Experiment: Amplification of Nav1.1-derived voltage-dependent sodium current (Nav1.1 current), cell line stably expressing human Nav1.1, automated patch clamp
Format: cell-based
Details: for activation at 1 µM / activation at 10 µM / activation at 50 µM: read-out: Nav1.1 current amplification rate (%)
Summary of the method: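 Automated whole-cell voltage-clamp recordings used HEK293 cells stably expressing human Nav1.1, keeping only cells with >500 pA current, with currents evoked by ramp voltage. Compounds were applied in extracellular fluid with 1% DMSO, and amplification (%) was computed from peak current or AUC after versus before addition.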

[1] = concentration of each compound 1 μmol/L (Test Result 6)
[2] = Concentration 1 μM (Test Result 7)
[3] = 10 μmol/L compound (Test Result 5)
[4] = compound 50 μmol/L, HEK293 stably expressing human Nav1.1

## CC1CC=C(c2ccc(=O)n(CC(=O)N3CCc4c(-c5cc[nH]n5)ccc(F)c43)n2)CC1 (racemic) [Example 292]
[1]
  Nav1.1 current amplification rate (%): 46%

## CN(c1ccc(=O)n(CC(=O)N2CCc3c(N4CCOCC4)cccc32)n1)C1CCCC1 [Example 565]
[2]
  activation at 1 µM: 62%

## CC1CC=C(c2ccc(=O)n(CC(=O)N3CCc4c(CNC5CCOCC5)cccc43)n2)CC1 (racemic) [Example 317]
[1]
  Nav1.1 current amplification rate (%): 41%

## CC1(C)CCN(c2ccc(=O)n(CC(=O)Nc3ccn4ncnc4c3)n2)CC1 [Example 228]
[1]
  activation at 1 µM: 29%

## CCC1CC=C(c2ccc(=O)n(CC(=O)Nc3ccn4ncnc4c3)n2)CC1 (centres unmarked) [Example 554]
[2]
  activation at 1 µM: 115%

## CC1CC=C(c2ccc(=O)n(CC(=O)N3CCc4c(C5CN(C(C)C)C5)cccc43)n2)CC1 (racemic) [Example 304]
[3]
  Nav1.1 current amplification rate (%): 167%

## O=C(Cn1nc(C2=CCCC2)ccc1=O)Nc1ccn2ccnc2c1 [Example 457]
[4]
  Nav1.1 current amplification rate (%): 29%

## CC1CC=C(c2ccc(=O)n(CC(=O)Nc3ccc4nncn4c3)n2)CC1 (racemic) [Example 341]
[4]
  Nav1.1 current amplification rate (%): 202%

## O=C(Cn1nc(C2=CCCCO2)ccc1=O)N1CCc2c(-c3ccnnc3)cccc21 [Example 525]
[3]
  activation at 10 µM: 18%

## COc1cc(=O)n(CC(=O)Nc2ccc3cncnc3c2)nc1C1=CCC(C)(C)CC1 [Example 541]
[2]
  activation at 1 µM: 325%

## CC1(C)CC(c2ccc(=O)n(CC(=O)Nc3ccc(C#N)cc3)n2)=CCO1 [Example 506]
[4]
  activation at 50 µM: 10%

## COc1cccc2c1CCN2C(=O)Cn1nc(N2CCC(C)(C)CC2)ccc1=O [Example 186]
[3]
  activation at 10 µM: 51%

## CC1CC=C(c2ccc(=O)n(CC(=O)N3CCc4c3ccnc4C3=CCOCC3)n2)CC1 (racemic) [Example 296]
[1]
  Nav1.1 current amplification rate (%): 87%

## N#Cc1ccc(NC(=O)Cn2nc(N3CCC4(CCCCC4)C3)ccc2=O)cc1 [Example 31]
[3]
  Nav1.1 current amplification rate (%): 220%

## CC1CC2CCC(C1)N2c1ccc(=O)n(CC(=O)Nc2ccn3ccnc3c2)n1 (centres unmarked) [Example 237]
[4]
  activation at 50 µM: 27%

## CC1CC2CCC(C1)N2c1ccc(=O)n(CC(=O)N2CCc3c(N4CCOCC4)cccc32)n1 (centres unmarked) [Example 238]
[4]
  activation at 50 µM: 128%

## CC1CC=C(c2ccc(=O)n(CC(=O)NC3CCn4ccnc4C3)n2)CC1 (centres unmarked) [Example 533]
[3]
  activation at 10 µM: 22%

## CC1CC=C(c2ccc(=O)n(CC(=O)N3CCN(c4ccn(C)n4)CC3)n2)CC1 (centres unmarked) [Example 412]
[4]
  Nav1.1 current amplification rate (%): 36%

## CC1(C)CCCC(c2ccc(=O)n(CC(=O)Nc3ccc(C#N)cc3)n2)C1 (centres unmarked) [Example 46]
[3]
  Nav1.1 current amplification rate (%): 85%

## CC1CC=C(c2ccc(=O)n(CC(=O)Nc3ccc(C4=CCN(C)C4)nc3)n2)CC1 (racemic) [Example 374]
[3]
  Nav1.1 current amplification rate (%): 18%

## CC1CC=C(c2ccc(=O)n(CC(=O)N3CC=C(c4ccccn4)CC3)n2)CC1 (centres unmarked) [Example 420]
[3]
  Nav1.1 current amplification rate (%): 39%

## CC1CC=C(c2ccc(=O)n(CC(=O)N3CCc4cc(OCC(C)(C)O)ccc43)n2)CC1 (racemic) [Example 320]
[1]
  Nav1.1 current amplification rate (%): 10%

## CC1CC=C(c2ccc(=O)n(CC(=O)Nc3cncc(-c4cnn(C)c4)c3)n2)CC1 (racemic) [Example 378]
[1]
  Nav1.1 current amplification rate (%): 37%

## COCCN(C)Cc1cccc2c1CCN2C(=O)Cn1nc(C2=CCC(C)CC2)ccc1=O (racemic) [Example 275]
[1]
  Nav1.1 current amplification rate (%): 46%

## N#Cc1ccc(NC(=O)Cn2nc(C3CCCCC3)ccc2=O)cc1 [Example 40]
[3]
  Nav1.1 current amplification rate (%): 20%

## N#Cc1ccc(NC(=O)Cn2nc(N3CCCC(O)C3)ccc2=O)cc1 (centres unmarked) [Example 7]
[3]
  Nav1.1 current amplification rate (%): 3%

## COc1cc(=O)n(CC(=O)Nc2ccn3ncnc3c2)nc1C1=CCC(C)(C)CC1 [Example 499]
[1]
  activation at 1 µM: 50%

## O=C(Cn1nc(C2=CCCCC2)ccc1=O)Nc1ccn2ncnc2c1 [Example 495]
[1]
  activation at 1 µM: 28%

## Cc1cc2ccc(NC(=O)Cn3nc(C4=CCC(C)CC4)ccc3=O)cn2n1 (racemic) [Example 347]
[1]
  Nav1.1 current amplification rate (%): 37%

## CC1CCN(c2ccc(=O)n(CC(=O)N3CCN(c4ccccn4)CC3)n2)CC1 [Example 180]
[3]
  activation at 10 µM: 22%

## CC1(C)CCCN(c2ccc(=O)n(CC(=O)Nc3ccc(C#N)cc3)n2)C1 [Example 22]
[3]
  Nav1.1 current amplification rate (%): 110%

## CCC1(C)CCN(c2ccc(=O)n(CC(=O)Nc3ccc(C#N)cc3)n2)CC1 [Example 28]
[3]
  Nav1.1 current amplification rate (%): 158%

## CC1CC=C(c2ccc(=O)n(CC(=O)Nc3cncc(C4=CCN(C)C4)c3)n2)CC1 (racemic) [Example 367]
[1]
  Nav1.1 current amplification rate (%): 38%

## O=C(Cn1nc(-c2cc(Cl)cs2)ccc1=O)Nc1ccn2ccnc2c1 [Example 467]
[1]
  Nav1.1 current amplification rate (%): 80%

## Cc1cc(=O)n(CC(=O)Nc2ccn3cnnc3c2)nc1C1=CCC(C)(C)CC1 [Example 505]
[4]
  activation at 50 µM: 255%

## CN(c1ccc(=O)n(CC(=O)N2CCc3c(-c4ccnnc4)cccc32)n1)C1CCCC1 [Example 562]
[2]
  activation at 1 µM: 247%

## N#Cc1ccc(NC(=O)Cn2nc(N3CCCC(C(F)(F)F)C3)ccc2=O)cc1 (centres unmarked) [Example 16]
[3]
  Nav1.1 current amplification rate (%): 59%

## Cc1cc(=O)n(CC(=O)Nc2ccc3oc(N(C)C)nc3c2)nc1C1=CCC(C)(C)CC1 [Example 504]
[1]
  activation at 1 µM: 27%

## O=C(Cn1nc(N2CCC3(CCC3)CC2)ccc1=O)Nc1ccc2cncnc2c1 [Example 553]
[2]
  activation at 1 µM: 155%

## O=C(Cn1nc(C2=CCCC2)ccc1=O)N1CCc2c(N3CCOCC3)cccc21 [Example 481]
[3]
  Nav1.1 current amplification rate (%): 128%

## CC1CC=C(c2ccc(=O)n(CC(=O)Nc3ccc4c(O)ncnc4c3)n2)CC1 (centres unmarked) [Example 550]
[2]
  activation at 1 µM: 31%

## N#Cc1ccc(NC(=O)Cn2nc(N3CCCCC3)ccc2=O)cc1 [Example 3]
[3]
  Nav1.1 current amplification rate (%): 40%

## CN(c1ccc(=O)n(CC(=O)Nc2cnc3cccnc3c2)n1)C1CCCC1 [Example 564]
Concentration 10 μM (Test Result 7)
  activation at 10 µM: 73%

## N#Cc1ccc(NC(=O)Cn2nc(N3CCCCCCC3)ccc2=O)cc1 [Example 12]
[3]
  Nav1.1 current amplification rate (%): 241%

## CC1CCN(c2ccc(=O)n(CC(=O)Nc3ccn4ncnc4c3)n2)CC1 [Example 229]
[1]
  activation at 1 µM: 34%

## N#Cc1ccc(NC(=O)Cn2nc(N3CCC4(CC3)COC4)ccc2=O)cc1 [Example 27]
[3]
  Nav1.1 current amplification rate (%): 5%

## Cc1c(N2CCC(C)CC2)nn(CC(=O)Nc2ccc(C#N)cc2)c(=O)c1C [Example 35]
[3]
  Nav1.1 current amplification rate (%): 301%

## CC1CC=C(c2ccc(=O)n(CC(=O)Nc3ccc4ncccc4c3)n2)CC1 (racemic) [Example 357]
[4]
  Nav1.1 current amplification rate (%): 43%

## CN(c1ccc(=O)n(CC(=O)Nc2ccc(C#N)nc2)n1)C1CCCC1 [Example 561]
[2]
  activation at 1 µM: 17%

## COC1CN(Cc2cccc3c2CCN3C(=O)Cn2nc(C3=CCC(C)CC3)ccc2=O)C1 (racemic) [Example 274]
[1]
  Nav1.1 current amplification rate (%): 60%

## O=C(Cn1nc(N2CCC3(CC3)C(F)(F)C2)ccc1=O)Nc1ccn2ncnc2c1 [Example 557]
[2]
  activation at 1 µM: 17%

## COc1cc(=O)n(CC(=O)Nc2ccc3oc(N(C)C)nc3c2)nc1C1=CCC(C)(C)CC1 [Example 500]
[1]
  activation at 1 µM: 14%

## CC1CC(C)CN(c2ccc(=O)n(CC(=O)Nc3ccc(C#N)cc3)n2)C1 (centres unmarked) [Example 15]
[3]
  Nav1.1 current amplification rate (%): 10%

## CC1CC=C(c2ccc(=O)n(CC(=O)N3CCC(Oc4ccccc4)CC3)n2)CC1 (racemic) [Example 390]
[3]
  Nav1.1 current amplification rate (%): 50%

## CC1CC=C(c2ccc(=O)n(CC(=O)Nc3ccc4cnccc4c3)n2)CC1 (centres unmarked) [Example 545]
[2]
  activation at 1 µM: 223%

## CC1CC=C(c2ccc(=O)n(CC(=O)Nc3ccc4c(cnn4C)c3)n2)CC1 (racemic) [Example 336]
[1]
  Nav1.1 current amplification rate (%): 68%

## CC1CC=C(c2ccc(=O)n(CC(=O)Nc3ccc(-c4cnn(C)c4)nc3)n2)CC1 (racemic) [Example 375]
[3]
  Nav1.1 current amplification rate (%): 173%

## CC1CC=C(c2ccc(=O)n(CC(=O)N3CCCN(c4cccnc4)CC3)n2)CC1 (racemic) [Example 384]
[1]
  Nav1.1 current amplification rate (%): 15%

## N#Cc1ccc(NC(=O)Cn2nc(N3CCC4(CC4)C(F)(F)C3)ccc2=O)cn1 [Example 560]
[2]
  activation at 1 µM: 12%

## CC1(C)C=C(c2ccc(=O)n(CC(=O)Nc3ccc(C#N)cc3)n2)CCO1 [Example 507]
[3]
  activation at 10 µM: 10%

## CN(c1ccc(=O)n(CC(=O)Nc2ccc3cnccc3c2)n1)C1CCCC1 [Example 563]
[2]
  activation at 1 µM: 50%

## N#Cc1ccc(NC(=O)Cn2nc(N3CCC(C(F)(F)F)CC3)ccc2=O)cc1 [Example 10]
[3]
  Nav1.1 current amplification rate (%): 124%
